Measurements as given in EPA's ToxValDB 9.5 (doi:10.2903/j.efsa.2010.1828).

Tests used:
[1] = tested on: Apis mellifera; conditions: acute; duration: 48 hours; oral; unspecified; mortality
[2] = tested on: Bird; conditions: short-term; oral; feed; mortality
[3] = tested on: Folsomia candida; conditions: chronic/long-term; duration: 28 days
[4] = tested on: Oncorhynchus mykiss
[5] = tested on: Macromiidae; conditions: acute; duration: 72 hours; growth
[6] = tested on: Daphnia magna; conditions: chronic/long-term; duration: 21 days; growth
[7] = tested on: Coturnix japonica; conditions: reproduction developmental; duration: 8 weeks; reproduction
[8] = tested on: Bibionidae; conditions: chronic/long-term; duration: 26 days; other
[9] = tested on: Tagia sp.; conditions: acute; duration: 14 days; mortality
[10] = tested on: Rattus norvegicus
[11] = tested on: Colinus virginianus; conditions: acute; oral; mortality
[12] = tested on: Aphidius rhopalosiphi; assay: LR50; higher = less toxic; conditions: not reported; mortality

O=C(Nc1ccccc1)N(Cc1ccc(Cl)cc1)C1CCCC1 [Pencycuron]
LD50 [1]: > 98.5 µg/piece
LC50 [2]: > 1750 mg/kg-day
NOEC [3]: 60 mg/kg
LC50 ([4]; acute, duration: 96 hours, mortality): > 0.3 µg/mL
NOEC ([4]; chronic/long-term, duration: 94 days, growth): 0.0832 mg/L
NOEC [5]: > 0.3 mg/L
NOEC [6]: 0.0496 mg/L
NOEL [7]: ≥ 122 mg/kg-day
NOEC [8]: ≥ 0.3 mg/L
LC50 [9]: > 10000 mg/kg
LD50 ([10]; acute, oral, mortality): > 5000 mg/kg
NOAEL ([10]; chronic, duration: 2 years): 18 mg/kg-day
NOAEL ([10]; reproduction developmental, body weight): 32 mg/kg-day
LD50 [11]: > 2000 mg/kg
LR50 [12]: 685 g/ha
